Results published in PMC9046208, “Foldamers reveal and validate therapeutic targets associated with toxic α-synuclein self-assembly” (Nature Communications, 2022).

Columns and labels:
[1] = tested on: NL5901; experiment: Motility (activity counts, WMicroTracker ARENA) of C elegans NL5901; assay type: in vivo; settings: NL5901, 15 µM SK-129 at the larval stage
Method: The assay was carried out based on a previous protocol[57] with slight modifications. On day one, N2 and NL5901 strains were synchronized through the bleaching process involving egglay and the incubation of the eggs at an ambient temperature (~23 °C) on a solution of 3 mL NGM media in 60 mm culture plates (CytoOne, USA Scientific, Ocala, FL). The plates were seeded with 300 µL OP50 at an O.D. of 0.5 for 30 h. Simultaneously, a solution of 15 µM SK-129 (Stock solution concentration = 10 mM in DMSO) was made in M9 buffer and added to two sterilized 35 mm NGM solid media plates (Fisher Scientific, Pittsburgh, PA). The plates were already containing 2 mL of NGM solid media and 75 µM Fluorodeoxyuridine (FUDR) to prevent offspring in the worms. On day two, M9 buffer was used to transfer the worms from 60 mm NGM plates into 35 mm FUDR and SK-129 containing solid media plates (Fisher Scientific, Pittsburgh, PA) and incubated up to day three on these plates. On day four, liquid media was prepared according to the previous protocol[69] with some modifications. […] On day five, motility assay was conducted for worms under different conditions in duplicate using a WMicroTracker Arena plate reader (Phylumtech, Argentina) at ~23 °C for 1 h per day over a period of 12 days. […]

[2] = molecular target: T1, αS2 seed-catalyzed aggregation (Homo sapiens, UniProt P37840, DEL15-23); experiment: Seed-catalyzed ThT aggregation assay (10% WT αS seeds), αS2; assay type: biochemical; settings: αS2, equimolar ratio
T1 construct: made in house
Method: Seed-catalyzed αS aggregation assay was performed similarly to a previously described protocol. Briefly, 100 μM monomeric WT αS solution (200 μL, in 1x PBS buffer) was placed into a ThermoMixer (Eppendorf, Hamberg, Germany) and shook for five days at a rate of […] and 37 °C. The solution was sonicated for 10 min and used as αS seeds. The seed-catalyzed aggregation of WT αS/ αS variants was performed by adding αS seeds (10% seeds, αS in monomeric concentration, v/v) into 140 μL of fresh 100 μM WT αS/ αS variants solution and aggregation was started with constant shaking at a rate of […] and 37 °C. The aggregation of proteins was monitored at the indicated times (See the main manuscript) using the above-mentioned method.
The ThT aggregation assay for each protein (WT αS and αS variants) in the presence of SK-129 was carried out the above-mentioned method. SK-129 (from 10 mM stock solution in DMSO) was added at an equimolar ratio (1% DMSO, v/v) to the proteins at the start of the aggregation experiment. The concentration of DMSO was kept constant (1%, v/v) in protein (WT αS and αS variants), control, and protein+molecule solutions. The kinetic profiles of protein aggregation were processed using OriginPro software (Version 9.1). Kinetic curves were fit using a built-in sigmoidal fit in the OriginLab.

[3] = tested on: HEK293 cells expressing αS-A53T-YFP; experiment: MTT assay, HEK293 cells αS-A53T-YFP, recombinant αS fibers; assay type: cell-based; design: key to MTT read-out (viability of HEK cells): absorbance at 570 nm (dissolved formazan); settings: for MTT read-out (viability of HEK cells): 7 μM αS + SK-129 equimolar
Method: The HEK293 cells that stably express αS-A53T-YFP and αS-YFP were grown in DMEM with 10% FBS and 1% pen/strep and cultured in an incubator at 37 °C and 5% CO2(g). A total of 60,000 cells per well in 300 µL media were plated in a µ-slide eight-well plate (Ibidi, Munich, Germany) and incubated for 24 h to adhere to the plate. […] Next, the plate was incubated for 24 h, followed by the addition of 30 µL of 1x PBS buffer containing MTT dye (in 1x PBS buffer, 5 mg/mL) to each well. The plates were wrapped in aluminum foil and incubated for 3 h. After 3 h, all liquid was aspirated carefully without disturbing the formazan crystals. To each well, 300 µL of DMSO was added to dissolve the crystals. Once dissolved, the DMSO solution was transferred to a clear 96-well plate (100 µL/well). The absorbance was read on a 96-well plate reader at 570 nm. The cytotoxicity of the HEK cells was monitored for up to 4 days.
The seeds were generated by aggregating recombinant αS (100 µM) in the absence and presence of SK-129 at an equimolar ratio under the ThT aggregation kinetic conditions for seven days. In the case of seeds from the brain, we used a PMCA sample (5th cycle) generated from the brain seeds in the absence and presence of SK-129 at an equimolar ratio.

effect on seed-catalyzed aggregation [2]: wholly suppressed
Structure (SMILES): COC(=O)c1cc(OCC(=O)O)c2cccc(NC(=O)c3cc(OC(C)C)c4cccc(NC(=O)c5cc(OCC(=O)O)c6cccc(NC(=O)c7cc(OC(C)C)c8cccc([N+](=O)[O-])c8n7)c6n5)c4n3)c2n1 [SK-129]
overall activity (motility) [1]: significant improvement in the overall activity
MTT read-out (viability of HEK cells) ([3]; trial 1): 0.806
MTT read-out (viability of HEK cells) ([3]; trial 2): 0.8743
MTT read-out (viability of HEK cells) ([3]; trial 3): 0.8833
MTT read-out (viability of HEK cells) ([3]; trial 4): 0.8674
MTT read-out (viability of HEK cells) ([3]; trial 5): 0.8626
MTT read-out (viability of HEK cells) ([3]; trial 6): 0.8492
MTT read-out (viability of HEK cells) ([3]; trial 7): 0.941
MTT read-out (viability of HEK cells) ([3]; trial 8): 0.878
MTT read-out (viability of HEK cells) ([3]; trial 9): 0.892
MTT read-out (viability of HEK cells) ([3]; trial 10): 0.917
MTT read-out (viability of HEK cells) ([3]; trial 11): 0.805
MTT read-out (viability of HEK cells) ([3]; trial 12): 0.8882
MTT read-out (viability of HEK cells) ([3]; trial 13): 0.8431
MTT read-out (viability of HEK cells) ([3]; trial 14): 0.8823
MTT read-out (viability of HEK cells) ([3]; trial 15): 0.919
MTT read-out (viability of HEK cells) ([3]; trial 16): 0.8589
viability of HEK cells ([3]; αS aggregated with SK-129 equimolar, 7 μM, 24 h, αS alone 68%): 94%
